In patent US10071164B2, “Estrogen-related receptor alpha based protac compounds and associated methods of use” (Yale University, priority 2014, dated 2018) one finds Dmax data, which are given here for 26 molecules.

The first test addresses T1, ERRα (Homo sapiens, UniProt P11474).
T1 sequence (P11474 1-423): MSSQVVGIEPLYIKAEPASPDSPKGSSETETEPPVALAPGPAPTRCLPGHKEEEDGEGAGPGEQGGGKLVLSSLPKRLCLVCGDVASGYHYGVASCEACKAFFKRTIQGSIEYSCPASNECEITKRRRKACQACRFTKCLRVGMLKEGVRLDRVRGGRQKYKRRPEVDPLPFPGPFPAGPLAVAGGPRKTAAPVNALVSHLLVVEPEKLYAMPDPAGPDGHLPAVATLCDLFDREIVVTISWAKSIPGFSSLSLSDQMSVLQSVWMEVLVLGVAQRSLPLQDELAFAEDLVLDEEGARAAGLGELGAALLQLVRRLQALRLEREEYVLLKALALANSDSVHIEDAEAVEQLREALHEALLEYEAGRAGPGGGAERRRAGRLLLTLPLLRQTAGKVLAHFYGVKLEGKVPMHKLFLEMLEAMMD
The test is described as follows: ERRα degradation in MCF-7 cells. The test is classed as cell-based. Details: endogenous in cells; host or cells: MCF-7 (ATCC). The settings on record: MCF7, column A, read-out: ERRα Degradation Dmax (Estimated) MCF-7 cells. The method, then:
Human MDA-MB-231 and MCF7 cells (purchased authenticated ATCC cell lines) were cultured in complete growth medium (Dulbecco's modified Eagle's medium (DMEM)/F12 supplemented with 10% FBS; Life Technologies) and grown at 37° C. with 5% CO2. THP-1 cells (ATCC) were cultured in RPMI 1640+10% FBS and were grown at 37° C. with 5% CO2. For cellular degradation of ERRα, MCF7 cells were seeded in a 24-well plate at 70% confluency, allowed to attach overnight, and incubated with the indicated compounds. For cellular degradation of RIPK2, 5×10^6 cells were incubated with the indicated compounds. When indicated, a 1-hour pretreatment with 1 μM epoxomicin was performed before the addition of compound. When indicated for washout studies, after PROTAC treatment, cells were washed repeatedly with PBS and incubated with complete medium for the indicated time before harvesting. The THP1 cell line has been authenticated using the Promega GenePrint10 kit to generate a STR Profile for comparison to the expected profile reported by ATCC. Cells were also routinely tested and negative for mycoplasma. Cell lines were routinely tested for mycoplasma contamination at Clongen (Gaithersburg, Md.).
Total protein concentrations of tissue homogenates and cell lysates were determined by Pierce BCA kit (Thermo Fisher). Homogenates or lysates were separated on 4-12% NuPAGE gels (Life Technologies) and transferred onto PVDF membranes (iBlot; Life Technologies). Membranes were blocked with 5% non-fat milk in TBST (0.1% Tween-20 in Tris-Buffered Saline) before overnight incubation with indicated antibodies. After incubation with the appropriate horseradish peroxidase-conjugated secondary antibodies, the bands were visualized by enhanced chemiluminescence (Pierce West Femto ECL). The intensity of the bands was quantified with Bio-Rad Quantity One software. When the IRDye secondary antibodies were used, the infrared signal was detected using an Odyssey scanner (Li-COR Biosciences) and the densitometry was performed using the Odyssey 2.1 Analyser software. The IRDye secondary antibodies anti-mouse (926-32212) and anti-mouse (926-68072) were purchased from Li-COR Biosciences and used at a 1:5,000 dilution. Statistical analysis of tissue densitometry levels were performed with GraphPad Prism software using the indicated statistical test.
(§1) Using the methods as described herein, the following exemplary PROTAC compounds were prepared (see Table below). The exemplary compounds were also assayed for their ability to effectuate the degration of ERRα in either MCF-7 cells or ST-486 cells. Thus, in certain embodiments, the description provides the compounds below, including compositions comprising effective amount of a compound as listed below or a derivative, analog, or a prodrug of the same, in combination with at least one of a pharmaceutically acceptable carrier, another active agent, including a second PROTAC molecule as described herein or a combination thereof. In additional embodiments, the disclosure provides a method of treating a disease or condition in a subject in need thereof, comprising administering a composition comprising an effective amount of a compound listed below, wherein the composition is effective for treating or ameliorating a symptom of the disease or condition.
(§2) Legend for following table: A=ERRα Degradation Dmax (Estimated) MCF-7 cells; B=ERRα Degradation DC50 (Estimated) MCF-7 cells; C=ERRα Degradation Dmax (Estimated) ST-486 cells; D=ERRα Degradation DC50 (Estimated) ST-486 cells
As to `COc1cc(/C=C2\SC(=O)N(CCOCCC(=O)N[C@H](C(=O)N3CC(O)C[C@H]3C(=O)NCc3ccc(-c4scnc4C)cc3)C(C)(C)C)C2=O)ccc1Oc1ccc(C#N)cc1C(F)(F)F` (some centres unmarked) [ARV N000020], the Dmax was 98%.

`COc1cc(/C=C2\SC(=O)N(CCOCCOCCOCCOc3cc(-c4scnc4C)ccc3CNC(=O)[C@@H]3C[C@@H](O)CN3C(=O)[C@H](C(C)C)N3Cc4ccccc4C3=O)C2=O)ccc1Oc1ccc(C#N)cc1C(F)(F)F` [ARV N000198]: the Dmax was 90%.

Turning to `COc1cc(/C=C2\SC(=O)N(CCOCCOCCCOCCOCCOc3cc(-c4scnc4C)ccc3CNC(=O)[C@@H]3C[C@@H](O)CN3C(=O)[C@H](C(C)C)N3Cc4ccccc4C3=O)C2=O)ccc1Oc1ccc(C#N)cc1C(F)(F)F` [ARV N000199], the Dmax is 90%.

On to `COc1cc(/C=C2\SC(=O)N(CCOCCOCCCCOCCCCOCCOCC(=O)N[C@H](C(=O)N3C[C@H](O)C[C@H]3C(=O)NCc3ccc(-c4scnc4C)cc3)C(C)(C)C)C2=O)ccc1Oc1ccc(C#N)cc1C(F)(F)F` [ARV N000200], for which the Dmax was 80%.

Take `COc1cc(/C=C2\SC(=O)N(CCOCCOCCCCCOCCCCCOCCOCC(=O)N[C@H](C(=O)N3C[C@H](O)C[C@H]3C(=O)NCc3ccc(-c4scnc4C)cc3)C(C)(C)C)C2=O)ccc1Oc1ccc(C#N)cc1C(F)(F)F` [ARV N000201]: the Dmax was 90%.

As to `COc1cc(/C=C2\SC(=O)N(CCOCCC(=O)N[C@H](C(=O)N3C[C@@H](O)C[C@H]3C(=O)NCc3ccc(-c4scnc4C)cc3)C(C)(C)C)C2=O)ccc1Oc1ccc(C#N)cc1C(F)(F)F` [ARV N000203], the Dmax is 40%.

On to `COc1cc(/C=C2\SC(=O)N(CCOCCOCCOCCOCCOc3cc(-c4scnc4C)ccc3CNC(=O)[C@@H]3C[C@@H](O)CN3C(=O)[C@H](C(C)C)N3Cc4ccccc4C3=O)C2=O)ccc1Oc1ccc(C#N)cc1C(F)(F)F` [ARV N000219], for which the Dmax was 98%.

Take `COc1cc(/C=C2\SC(=O)N(CCOCCOCCOCCOCCOCCOc3cc(-c4scnc4C)ccc3CNC(=O)[C@@H]3C[C@@H](O)CN3C(=O)[C@H](C(C)C)N3Cc4ccccc4C3=O)C2=O)ccc1Oc1ccc(C#N)cc1C(F)(F)F` [ARV N000220]: the Dmax was 85%.

In the case of `COc1cc(/C=C2\SC(=O)N(CCOCCCOCCCOc3cc(-c4scnc4C)ccc3CNC(=O)[C@@H]3C[C@@H](O)CN3C(=O)[C@H](C(C)C)N3Cc4ccccc4C3=O)C2=O)ccc1Oc1ccc(C#N)cc1C(F)(F)F` [ARV N000222], the Dmax was 90%.

In the case of `COc1cc(/C=C2\SC(=O)N(CCOCCOCCOCCOCCOCC(=O)N[C@H](C(=O)N3C[C@H](O)C[C@H]3C(=O)NCc3ccc(-c4scnc4C)cc3)C(C)(C)C)C2=O)ccc1Oc1ccc(C#N)cc1C(F)(F)F` [ARV N000223], the Dmax is 80%.

Take `COc1cc(/C=C2\SC(=O)N(CCCCCOCCOCCC(=O)N[C@H](C(=O)N3CC(O)C[C@H]3C(=O)NCc3ccc(-c4scnc4C)cc3)C(C)(C)C)C2=O)ccc1Oc1ccc(C#N)cc1C(F)(F)F` (some centres unmarked) [ARV N000224]: the maximal degradation (Dmax) is 90%.

As for `COc1cc(/C=C2\SC(=O)N(CCOCCOCCCCCOCCOCCOc3cc(-c4scnc4C)ccc3CNC(=O)[C@@H]3C[C@@H](O)CN3C(=O)[C@H](C(C)C)N3Cc4ccccc4C3=O)C2=O)ccc1Oc1ccc(C#N)cc1C(F)(F)F` [ARV N000231], the maximal degradation (Dmax) is 98%.

As to `COc1cc(/C=C2\SC(=O)N(CCOCCOCCCCCOCCCCCOCCOCCOc3cc(-c4scnc4C)ccc3CNC(=O)[C@@H]3C[C@@H](O)CN3C(=O)[C@H](C(C)C)N3Cc4ccccc4C3=O)C2=O)ccc1Oc1ccc(C#N)cc1C(F)(F)F` [ARV N000232], the maximal degradation (Dmax) is 60%.

`COc1cc(/C=C2\SC(=O)N(CCCCOCCCCOCCCCOc3cc(-c4scnc4C)ccc3CNC(=O)[C@@H]3C[C@@H](O)CN3C(=O)[C@H](C(C)C)N3Cc4ccccc4C3=O)C2=O)ccc1Oc1ccc(C#N)cc1C(F)(F)F` [ARV N000233]: the Dmax was 60%.

For the molecule `COc1cc(/C=C2\SC(=O)N(CCOCCOCCOCCOCCOCCOCC(=O)N[C@H](C(=O)N3C[C@H](O)C[C@H]3C(=O)NCc3ccc(-c4scnc4C)cc3)C(C)(C)C)C2=O)ccc1Oc1ccc(C#N)cc1C(F)(F)F` [ARV N000234], the greatest degradation seen (Dmax) was 98%.

Turning to `COc1cc(/C=C2\SC(=O)N(CCOCCOCCCOCCOCCOCC(=O)N[C@H](C(=O)N3C[C@H](O)C[C@H]3C(=O)NCc3ccc(-c4scnc4C)cc3)C(C)(C)C)C2=O)ccc1Oc1ccc(C#N)cc1C(F)(F)F` [ARV N000235], the Dmax is 95%.

Another test has as its target T1, ERRα. Nature of the test: ERRα degradation in ST-486 cells. Set-up: degration of ERRα in either MCF-7 cells or ST-486 cells; endogenous in cells; host or cells: ST-486. The test is classed as cell-based. The settings on record: ST486, column C, read-out: ERRα Degradation Dmax (Estimated) ST-486 cells. The method, then:
as §1, §2
With `COc1cc(/C=C2\SC(=O)N(CCCCOCCOCCOCC(=O)N[C@H](C(=O)N3C[C@H](O)C[C@H]3C(=O)NCc3ccc(-c4scnc4C)cc3)C(C)(C)C)C2=O)ccc1Oc1ccc(C#N)cc1C(F)(F)F` [ARV N000236], the Dmax was 90%.

As to `COc1cc(/C=C2\SC(=O)N(CCOCCOCCCCOCCOCCOCC(=O)N[C@H](C(=O)N3C[C@H](O)C[C@H]3C(=O)NCc3ccc(-c4scnc4C)cc3)C(C)(C)C)C2=O)ccc1Oc1ccc(C#N)cc1C(F)(F)F` [ARV N000244], the maximal degradation (Dmax) is 80%.

Turning to `COc1cc(/C=C2\SC(=O)N(CCCCOCCCCOCCCCCCC(=O)N[C@H](C(=O)N3C[C@H](O)C[C@H]3C(=O)NCc3ccc(-c4scnc4C)cc3)C(C)(C)C)C2=O)ccc1Oc1ccc(C#N)cc1C(F)(F)F` [ARV N000245], the Dmax was 40%.

On to `COc1cc(/C=C2\SC(=O)N(CCCCOCCCCOCCCCCC(=O)N[C@H](C(=O)N3C[C@H](O)C[C@H]3C(=O)NCc3ccc(-c4scnc4C)cc3)C(C)(C)C)C2=O)ccc1Oc1ccc(C#N)cc1C(F)(F)F` [ARV N000246], for which the Dmax was 90%.

On to `COc1cc(/C=C2\SC(=O)N(CCOCCOCCCCOCCOCCOc3cc(-c4scnc4C)ccc3CNC(=O)[C@@H]3C[C@@H](O)CN3C(=O)[C@H](C(C)C)N3Cc4ccccc4C3=O)C2=O)ccc1Oc1ccc(C#N)cc1C(F)(F)F` [ARV N000265], for which the Dmax was 80%.

As to `COc1cc(/C=C2\SC(=O)N(CCOCCOCCCCOCCCCOCCOCCOc3cc(-c4scnc4C)ccc3CNC(=O)[C@@H]3C[C@@H](O)CN3C(=O)[C@H](C(C)C)N3Cc4ccccc4C3=O)C2=O)ccc1Oc1ccc(C#N)cc1C(F)(F)F` [ARV N000266], the Dmax was 50%.

For `COc1cc(/C=C2\SC(=O)N(CCOCCOCCCCCOCCOCCOCC(=O)N[C@H](C(=O)N3C[C@H](O)C[C@H]3C(=O)NCc3ccc(-c4scnc4C)cc3)C(C)(C)C)C2=O)ccc1Oc1ccc(C#N)cc1C(F)(F)F` [ARV N000267], the Dmax is 80%.

As for `COc1cc(/C=C2\SC(=O)N(Cc3ccccc3CC(=O)N[C@H](C(=O)N3C[C@H](O)C[C@H]3C(=O)NCc3ccc(-c4scnc4C)cc3)C(C)(C)C)C2=O)ccc1Oc1ccc(C#N)cc1C(F)(F)F` [ARV N000381], the Dmax was 98%.

`COc1cc(/C=C2\SC(=O)N(Cc3cccc(CC(=O)N[C@H](C(=O)N4C[C@H](O)C[C@H]4C(=O)NCc4ccc(-c5scnc5C)cc4)C(C)(C)C)c3)C2=O)ccc1Oc1ccc(C#N)cc1C(F)(F)F` [ARV N000382]: the Dmax was 98%.

As for `COc1cc(/C=C2\SC(=O)N(CCOCCOCCOCC(=O)N[C@H](C(=O)N3C[C@H](O)C[C@H]3C(=O)NCc3ccc(-c4scnc4C)cc3)C(C)(C)C)C2=O)ccc1Oc1ccccc1C(F)(F)F` [ARV N000383], the Dmax was 98%.

Broadly, the Dmax is the greatest extent of degradation seen.
